Laboratory results taken from US4330552A, “Antiinflammatory 4,5-diaryl-2-arylthioimidazoles” (E. I. Du Pont de Nemours and Company, priority 1980, dated 1982).

System: adjuvant-induced arthritis in rats
Assay: Established Adjuvant-Induced Arthritis in Rats (paw volume reduction)
Type: in vivo, Lewis (Wistar) male rats
Conditions: oral gavage once daily for 7 days (days 14-20), paw volume on day 21; for ED50: Rattus norvegicus, estimated from dose-response regression lines by inspection, read-out: Adjuvant Arthritis ED50 (50% decrease from control paw volume)

Compound | ED50 [mg/kg] | percent paw volume reduction at the dose indicated (25 mg/kg) [%] | further results
COc1ccc(-c2nc(S(=O)(=O)c3ccccc3)[nH]c2-c2ccc(OC)cc2)cc1 [Example 6] | 58 |  | 
COc1ccc(-c2nc(S(=O)(=O)c3ccc(Cl)cc3)[nH]c2-c2ccc(OC)cc2)cc1 [Example 5, 4,5-Bis(4-methoxyphenyl)-2-(4-chlorophenylsulfonyl)-1H-imidazole] |  | 31 | 
COc1ccc(-c2nc(Sc3ccccc3)[nH]c2-c2ccc(OC)cc2)cc1 [Example 2] |  | 32 | percent paw volume reduction at the dose indicated (50 mg/kg): 28%; percent paw volume reduction at the dose indicated (100 mg/kg): 32%
COc1ccc(-c2nc(S(=O)(=O)c3ccc(OC)cc3)[nH]c2-c2ccc(OC)cc2)cc1 [Example 8] |  | 16 | 
COc1ccc(-c2nc(Sc3ccc(Cl)cc3)[nH]c2-c2ccc(OC)cc2)cc1 [Example 1, 4,5-Bis(4-methoxyphenyl)-2-(4-chlorophenylthio)-1H-imidazole] | 10 |  | 
COc1ccc(-c2nc(Sc3ccc(F)cc3)[nH]c2-c2ccc(OC)cc2)cc1 [Example 3] |  | 35 | 
COc1ccc(Sc2nc(-c3ccc(OC)cc3)c(-c3ccc(OC)cc3)[nH]2)cc1 [Example 4] | 13 |  | 
COc1ccc(-c2nc(S(=O)(=O)c3ccc(F)cc3)[nH]c2-c2ccc(OC)cc2)cc1 [Example 7] |  |  | percent paw volume reduction at the dose indicated (27 mg/kg): 0%
